Experimental data taken from PMC12006171, “Marsupial cathelicidins: characterization, antimicrobial activity and evolution in this unique mammalian lineage” (Frontiers in Immunology, 2025).
In brackets after ≈: the same amount, converted by molar mass. Where two headings read alike, the source gives them in different places. Where a SMILES comes first, the peptide text is derived from it.

Assays:
Format in all cases: cell-based
[1] = system: Pseudomonas aeruginosa clinical isolate - animal; test: microbe, parasite or virus in culture; settings: clinical isolate - animal
In short: (§1)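 Broth microdilution following CLSI M07-A/M26A, using peptides at 64–0.125 μg/mL final in MHB, with or without 10% lysed horse blood and with or without Ca/Mg cations (MH II B). Inoculum 5 x 10^5 CFU/mL, incubated 20–24 h at 35 °C; MIC is lowest concentration preventing visible growth, MBC by colony counts versus starting inoculum.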

[2] = system: Staphylococcus aureus ATCC 29213; test: microbe, parasite or virus in culture; settings: ATCC 29213
In short: as §1

[3] = system: Staphylococcus aureus clinical isolate - animal; test: microbe, parasite or virus in culture; settings: clinical isolate - animal
In short: as §1

[4] = system: Escherichia coli ATCC 25922; test: microbe, parasite or virus in culture; settings: ATCC 25922
In short: as §1

[5] = system: Escherichia coli clinical isolate - animal; test: microbe, parasite or virus in culture; settings: clinical isolate - animal
In short: as §1

[6] = system: Pseudomonas aeruginosa ATCC 27853; test: microbe, parasite or virus in culture; settings: ATCC 27853
In short: as §1

[7] = system: Staphylococcus aureus clinical isolate – animal, methicillin-resistant (MRSA); settings: clinical isolate – animal, methicillin-resistant
Protocol: (§2) Antimicrobial testing of 78 cathelicidin MPs was performed in two phases as outlined in Figure 1 . In phase I, 40 peptides (27 extant and 13 ancestral) were selected for testing based on rank (outlined above) and similarity to published marsupial cathelicidins with known antimicrobial activity ([33], [41]–[43]). These peptides were tested against nine bacteria (Staphylococcus aureus ATCC 29213 and clinical isolate, Escherichia coli ATCC 25922 and clinical isolate, Pseudomonas aeruginosa ATCC 27853 and clinical isolate, Streptococcus agalactiae ATCC 12386 and clinical isolate, Streptococcus pneumoniae ATCC 49619) and three fungi (Candida krusei ATCC 6258, Candida parapsilosis ATCC 22019, and Candida albicans clinical isolate). Details regarding these strains are available in Supplementary Table 4 . The antimicrobial activity of cathelicidins was determined as the minimum inhibitory concentration (MIC), which was the lowest concentration of cathelicidin that prevented visible bacterial or fungal growth, relative to the negative control. […] Minimum bactericidal concentration (MBC) and/or minimum fungicidal concentration (MFC) was conducted to determine microbicidal versus static action. Activity against S. aureus ATCC, E. coli ATCC, and Pseudomonas aeruginosa ATCC 27853 was examined in the presence of divalent cations to determine the impact of inhibitors.
(§3) Antimicrobial activity was determined using a broth microdilution susceptibility assay in 96 well polypropylene plates according to Clinical Laboratory Standards Institute guidelines M07-A and M26A as described previously ([33], [42], [43]). The bacterial and fungal isolates from humans and animals used in this study are outlined in Supplementary Table 4 . Only yeasts were included in the panel of fungi as they have been used in the susceptibility testing of eutherian ([3], [81]–[83]) and other marsupial cathelicidins previously ([33], [42], [43]). Cathelicidin mature peptides were solubilized in DMSO and serially diluted in duplicate from 128-0.25μg/mL in a final volume of 100µL. For bacteria, cathelicidins were diluted in Mueller Hinton Broth (MHB) with or without 10% lysed horse blood, and with (MH II B) or without (MHB) calcium and magnesium cations. For fungi, cathelicidins were diluted in Roswell Park Memorial Institute medium (RPMI)-1640 MOPS. Ampicillin or tetracycline were included as a positive control for Gram-positive and -negative bacteria respectively, while amphotericin B was used for fungi. A media-only negative control and growth control (no cathelicidin) were also included on each plate. Bacteria were sub-cultured on Muller Hinton agar (MHA) or sheep blood agar (BA), and fungi on Sabouraud dextrose agar (SAB), 20–24 hours prior to the test. Colonies were suspended in saline, the concentration adjusted to a 0.5 McFarland standard, and then diluted in media to a concentration of 1.0 x 10^6 cells/mL. Then, 100μL was added to each well of the cathelicidin dilution plate, giving a final inoculum density of 5 x 10^5 CFU/mL and cathelicidin concentration of 64-0.125μg/mL. Colony counts were performed on MHA/BA/SAB to confirm inoculum density. All plates were incubated at 35°C for 20–24 hours, depending on the strain.
(§4) Colonies were counted and compared to the colony count of the starting inoculum.

[8] = system: Staphylococcus aureus clinical isolate – animal, penicillin-resistant (PRSA); settings: clinical isolate – animal, penicillin-resistant (PRSA)
Protocol: as §2, §3, §4

[9] = system: Streptococcus agalactiae ATCC 12386; test: microbe, parasite or virus in culture; settings: ATCC 12386; read-out: MIC S. agalactiae ATCC
Protocol: as §2, §3, §4

[10] = system: Streptococcus pneumoniae ATCC 49619; test: microbe, parasite or virus in culture; settings: ATCC 49619; read-out: MIC S. pneumoniae ATCC
Protocol: as §2, §3, §4

[11] = system: Candida parapsilosis ATCC 22019; test: microbe, parasite or virus in culture; settings: for MIC: Lodderomyces parapsilosis, ATCC22019
Protocol: as §2, §3, §4

[12] = system: Streptococcus agalactiae Clinical isolate - animal; test: microbe, parasite or virus in culture; settings: clinical isolate - animal; read-out: MIC S. agalactiae
Protocol: as §2, §3, §4

Candida krusei ATCC 6258 = test: microbe, parasite or virus in culture
Protocol: as §2, §3, §4

[13] = system: Candida albicans Clinical isolate - human; test: microbe, parasite or virus in culture; settings: for MIC: Candida albicans, clinical isolate
Protocol: as §2, §3, §4

[14] = system: six bacteria (S. aureus, E. coli, P. aeruginosa; ATCC and clinical isolate)
Protocol: as §2
In phase II, the remaining 38 peptides (37 extant and one ancestral) were tested against six bacteria (S. aureus ATCC and clinical isolate, E. coli ATCC and clinical isolate, and P. aeruginosa ATCC and clinical isolate). […] No further testing on phase II peptides was performed. Detailed methods for all assays are provided in subsequent sections.
as §3, §4

[15] = read-out: MIC P. aeruginosa ATCC
[16] = ATCC 6258, read-out: MIC C. krusei ATCC
[17] = RPMI-1640 MOPS, 5 x 10^5 CFU/mL, 35°C 20–24 hours, duplicate
[18] = read-out: MIC in the presence of cations E. coli ATCC

| MIC ([1]; read-out: MIC P. aeruginosa) [µM] | MIC S. aureus ATCC [2] | MIC in the presence of cations S. aureus ATCC [2] | MIC S. aureus [3] | MIC in the presence of cations S. aureus [3] | MIC [5] [µM] | MIC in the presence of cations E. coli [5] [µM] | MIC [6, 15] [µM] | MIC MRSA [7] [µM] | MIC PRSA [8] [µM] | MIC [9] [µM] | MIC [10] [µM] | MIC [12] [µM] | MIC (Candida krusei ATCC 6258; [16]) [µM] | SMILES | MBC S. aureus ATCC [2] | MBC S. aureus [3] | MBC E. coli ATCC [4] | MBC E. coli [5] [µM] | MBC MRSA [7] [µM] | MBC PRSA [8] [µM] | also measured |
| --- | --- | --- | --- | --- | --- | --- | --- | --- | --- | --- | --- | --- | --- | --- | --- | --- | --- | --- | --- | --- | --- |
| >27.1 | 13.5 (13.5)^13.5 µM | 13.5 (13.5)^13.5 µM | 13.5 (13.5)^13.5 µM | 13.5 (13.5)^13.5 µM | 13.5 (≈ 31.9 µg/mL) | 27.1 | >27.1 | 13.5 (≈ 31.9 µg/mL) | 6.7 (≈ 15.8 µg/mL) | >27.1 | >27.1 | >27.1 | 8.9 | CC[C@H](C)[C@H](NC(=O)[C@H](CCCNC(=N)N)NC(=O)[C@@H](N)CCCCN)C(=O)NCC(=O)N[C@@H](CC(C)C)C(=O)NCC(=O)NCC(=O)N[C@@H](CC(C)C)C(=O)N[C@H](C(=O)N[C@@H](CCCNC(=N)N)C(=O)N[C@@H](CCCNC(=N)N)C(=O)N[C@H](C(=O)N[C@@H](CC(C)C)C(=O)N[C@@H](CC(=O)O)C(=O)N[C@@H](CCCNC(=N)N)C(=O)N[C@H](C(=O)N[C@@H](CCCNC(=N)N)C(=O)N[C@@H](CCCNC(=N)N)C(=O)N[C@@H](CCCNC(=N)N)C(=O)NCC(=O)O)[C@@H](C)CC)[C@@H](C)CC)C(C)C [AnstCath4] (H-KRIGLGGLVRRILDRIRRRG-OH) | 13.5 (13.5)^13.5 µM | 13.5 (13.5)^13.5 µM | 27.1 (27.1)^27.1 µM | 27.1 (≈ 64 µg/mL) | 27.1 (≈ 64 µg/mL) | 6.7 (≈ 15.8 µg/mL) | MIC E. coli ATCC [4]: 27.1 (27.1)^27.1 µM; MFC C. parapsilosis ATCC ([11]; ATCC 22019): 64 (>64) µg/mL |
|  |  |  |  |  |  |  |  |  |  |  |  |  |  | C[C@@H]1[C@H](O)[C@@H](C)/C=C/C=C/C=C/C=C/C=C/C=C/C=C/[C@H](O[C@@H]2O[C@H](C)[C@@H](O)[C@H](N)[C@@H]2O)C[C@@H]2O[C@](O)(C[C@@H](O)C[C@@H](O)[C@H](O)CC[C@@H](O)C[C@@H](O)CC(=O)O[C@H]1C)C[C@H](O)[C@H]2C(=O)O [Amphotericin B, reference compound] |  |  |  |  |  |  | MIC [11, 17]: 0.5 µg/mL; MIC ([11]; µM version of Table 4, read-out: MIC C. parapsilosis ATCC): 0.5 µM; MIC [13, 17]: 0.5 µg/mL; MIC ([13]; µM version of Table 4, read-out: MIC C. albicans): 0.5 µM; MIC (Candida krusei ATCC 6258; Pichia kudriavzevii, ATCC6258, RPMI-1640 MOPS, 5 x 10^5 CFU/mL, 35°C 20–24 hours, duplicate): 1 µg/mL; MIC (Candida krusei ATCC 6258; Pichia kudriavzevii, ATCC6258, µM version of Table 4, read-out: MIC C. krusei ATCC): 1 µM |
| 26.3 (≈ 64 µg/mL) | 6.5 (6.5)^6.5 µM | 6.5 (6.5)^6.5 µM | 6.5 (6.5)^6.5 µM | 6.5 (6.5)^6.5 µM | 3.2 (≈ 7.79 µg/mL) | 6.5 | >26.3 | 6.5 (≈ 15.8 µg/mL) | 3.2 (≈ 7.79 µg/mL) | >26.3 | >26.3 | >26.3 | 6.5 | CC[C@H](C)[C@H](NC(=O)[C@H](CCCNC(=N)N)NC(=O)[C@@H](N)CCCCN)C(=O)NCC(=O)N[C@@H](CC(C)C)C(=O)NCC(=O)NCC(=O)N[C@@H](CC(C)C)C(=O)N[C@H](C(=O)N[C@@H](CCCNC(=N)N)C(=O)N[C@@H](CCCNC(=N)N)C(=O)N[C@H](C(=O)N[C@@H](Cc1c[nH]c2ccccc12)C(=O)N[C@@H](CC(N)=O)C(=O)N[C@@H](CCCNC(=N)N)C(=O)N[C@H](C(=O)N[C@@H](CCCNC(=N)N)C(=O)N[C@@H](CCCNC(=N)N)C(=O)N[C@@H](CCCNC(=N)N)C(=O)NCC(=O)O)[C@@H](C)CC)[C@@H](C)CC)C(C)C [SmcrCath3] (H-KRIGLGGLVRRIWNRIRRRG-OH) | 6.5 (6.5)^6.5 µM | 6.5 (6.5)^6.5 µM | 6.5 µM (≈ 15.8 µg/mL) | 6.5 (≈ 15.8 µg/mL) | 6.5 (≈ 15.8 µg/mL) | 6.5 (≈ 15.8 µg/mL) | MBC P. aeruginosa [1]: > 26.3 µM; MIC ([4]; read-out: MIC E. coli ATCC): 6.5 µM (≈ 15.8 µg/mL); MIC [4, 18]: 13.1 µM; MFC C. albicans ([13]; Clinical isolate - human): 26.3 µM (≈ 64 µg/mL) |
| 2.2 (≈ 7.8 µg/mL) |  |  | 18 (>18)^18 µM | 18 (>18)^18 µM | 1.1 (≈ 3.9 µg/mL) |  | 2.2 (≈ 7.8 µg/mL) | 18 (≈ 63.8 µg/mL) | 4.5 (≈ 15.9 µg/mL) | >18 | >18 | >18 |  | CC[C@H](C)[C@H](NC(=O)[C@H](CCC(N)=O)NC(=O)[C@H](Cc1ccccc1)NC(=O)[C@H](CC(N)=O)NC(=O)[C@H](CCCCN)NC(=O)[C@H](CC(C)C)NC(=O)[C@H](CCCNC(=N)N)NC(=O)[C@H](CCCCN)NC(=O)[C@H](CCCCN)NC(=O)[C@@H](NC(=O)[C@H](CO)NC(=O)[C@H](CCCCN)NC(=O)CNC(=O)[C@H](CC(C)C)NC(=O)[C@H](CCCCN)NC(=O)[C@H](CCCCN)NC(=O)[C@H](CC(C)C)NC(=O)[C@H](CCCCN)NC(=O)[C@H](CCCCN)NC(=O)[C@H](CCCNC(=N)N)NC(=O)[C@H](CC(C)C)NC(=O)CNC(=O)[C@@H](N)CCCNC(=N)N)[C@@H](C)CC)C(=O)NCC(=O)N[C@@H](Cc1ccccc1)C(=O)N[C@@H](CO)C(=O)N[C@H](C(=O)N1CCC[C@H]1C(=O)N[C@@H](Cc1ccccc1)C(=O)N[C@@H](C)C(=O)NCC(=O)O)C(C)C [PegaCath4] (H-RGLRKKLKKLGKSIKKRLKNFQIGFSVPFAG-OH) |  |  | 2.2 µM (≈ 7.8 µg/mL) | 1.1 (≈ 3.9 µg/mL) | > 18 | > 18 | MBC P. aeruginosa [1]: 4.5 µM (≈ 15.9 µg/mL); MIC ([1]; read-out: MIC in the presence of cations P. aeruginosa): 2.2 µM; MIC ([2]; read-out: MIC S. aureus ATCC): 9 µM (≈ 31.9 µg/mL); MIC ([2]; read-out: MIC in the presence of cations S. aureus ATCC): 18 µM; MIC ([4]; read-out: MIC E. coli ATCC): 1.1 µM (≈ 3.9 µg/mL); MIC [4, 18]: 1.1 µM; MBC P. aeruginosa ATCC [6]: 4.5 µM (≈ 15.9 µg/mL); MIC ([6]; read-out: MIC in the presence of cations P. aeruginosa ATCC): 2.2 µM; MIC against at least one strain [14]: 4 µg/mL (≈ 1.13 µM) |
